Here are results for three compounds from paper PMC5102573 (Clinical Pharmacology and Therapeutics, 2016).

Where “and” joins values, the source holds several entries; their conditions need not be identical. Equal entries are not always repeated. Structures can show the parent of a compound that is named as a salt. Where two headings read alike, the source gives them in different places.

Series [1] is described as follows: Urinary excretion.
For series [2] the following is noted: rosuvastatin 10 mg q.d. with metformin 750 mg q.d.; cited from earlier work.
The conditions of series [3]: 5 mg rosuvastatin and 600 mg rifampin; cited from earlier work.
The mark [4] stands for this setting: cocktail T1 vs alone, geometric mean ratio.
The mark [5] stands for this setting: cocktail T2 vs alone, geometric mean ratio.
Setting [6] is: cocktail T3 vs alone, geometric mean ratio.

For `C[C@H]1O[C@@H](O[C@H]2[C@@H](O)C[C@H](O[C@H]3[C@@H](O)C[C@H](O[C@H]4CC[C@@]5(C)[C@H](CC[C@@H]6[C@@H]5C[C@@H](O)[C@]5(C)[C@@H](C7=CC(=O)OC7)CC[C@]65O)C4)O[C@@H]3C)O[C@@H]2C)C[C@H](O)[C@@H]1O` [Digoxin, digoxin], the “urinary excretion parameters fe0-36 and CLR,0-36 between the treatments” value in series [1] (alone vs cocktails) was “comparable”. In addition, where the note is “T3 vs T1”, the “AUC0-tz decrease, cocktail T3 vs cocktail T1” value amounted to 22.6% and the “Cmax decrease, cocktail T3 vs cocktail T1” value was determined as 12.2%. Besides, where the note is “after all treatments (alone and cocktails)”, the median tmax is 1.0 h. Moreover, for the setting “cocktail T3 vs alone (R)”, the “AUC0-tz decrease in cocktail vs drug alone” value was 17%; the “Cmax decrease in cocktail vs drug alone” value is 11.4% and 11%.
As to `CN(C)C(=N)N=C(N)N` [Metformin, metformin hydrochloride], in series [1] (cocktails T1 and T3 vs alone), the “CLR,0-24 decrease in cocktails vs drug alone” value is 10–18% and the “fe0-36 decrease in cocktails vs drug alone” value is 10–18%.
Regarding `CC(C)c1nc(N(C)S(C)(=O)=O)nc(-c2ccc(F)cc2)c1/C=C/[C@@H](O)C[C@@H](O)CC(=O)O` [Rosuvastatin, rosuvastatin], the “CLR,0-36 in the different treatment periods” value in series [1] (alone vs cocktails) is “comparable”. In series [1] (analyte given in Test Cocktail 1), the “fe0-36, gMean” value turned out to be 7.93%. The “fe0-36, gMean” value in series [1] (drug given alone, fraction excreted in urine 0-36 h) was determined as 5.45%. In series [1] (in vivo), the “fe0-36 in cocktails T1, T2, and T3 compared to drug alone” value is on record as “higher”. Under setting [4], the “AUC0-tz increase (higher) in cocktail vs drug alone” value is 43.4% and 43%; the “AUC0-∞ increase in cocktail vs drug alone” value (shortened to “AUC0-∞ increase in cocktail”) stood at 27.8%; the “Cmax increase (higher) in cocktail vs drug alone” value is 38.6% and 39%. Moreover, under setting [5], the “AUC0-tz increase in cocktail vs drug alone” value was 50.9%, the “AUC0-∞ increase in cocktail” value stood at 37.4% and the “Cmax increase in cocktail vs drug alone” value amounted to 37.9%. Under setting [6], the “AUC0-tz increase in cocktail vs drug alone” value is on record as 45.6%, the “AUC0-∞ increase in cocktail” value amounted to 23.3% and the “Cmax increase in cocktail vs drug alone” value was 40.1%. Besides, for the setting “test cocktail T1 vs drug alone”, the “AUC0-tz, Ratio T/R (relative bioavailability)” value is recorded as 143.39%; the “AUC0-∞, Ratio T/R (relative bioavailability)” value is listed as 127.83%; the “Cmax, Ratio T/R (relative bioavailability)” value was determined as 138.57%. Moreover, under “test cocktail T2 vs drug alone”, the “AUC0-tz, Ratio T/R (relative bioavailability)” value was 150.87%; the “AUC0-∞, Ratio T/R (relative bioavailability)” value turned out to be 137.43%; the “Cmax, Ratio T/R (relative bioavailability)” value is 137.93%. Also, under “test cocktail T3 vs drug alone”, the “AUC0-tz, Ratio T/R (relative bioavailability)” value is recorded as 145.61%; the “AUC0-∞, Ratio T/R (relative bioavailability)” value came out at 123.25%; the “Cmax, Ratio T/R (relative bioavailability)” value is on record as 140.05%. In series [2], the “effect of metformin on AUCτ” value is reported as “did not alter” and the “increase of geometric mean Cmax,ss caused by metformin” value is listed as 23%. In addition, in series [3], the “increase of plasma AUC0-24 with rifampin” value is recorded as 5.2 fold and the “increase of plasma Cmax with rifampin” value is reported as 9.9 fold.
